# Results: patent US10149809B2, “Skin aging inhibitor and concentrate of resveratrol 3-O-α-glucoside” (priority 2014, dated 2018)
# Legend:
# [1] = system: hyaluronidase (from bovine testes); assay: Hyaluronidase inhibitory effect; type: biochemical; settings: pH 4.0, 37° C., 40 minutes
# Procedure: The following sample solution, enzyme solution, and hyaluronic acid solution were prepared.
# Resveratrol 3-O-α-glucoside was dissolved in a 0.2 M acetate buffer solution (pH 4.0) to a concentration of 0.025 or 0.1 wt %, and the resulting solution was used as a sample solution.
# In 1.5 mL of a 0.2 M acetate buffer solution (pH 4.0), 7400 units of hyaluronidase (from bovine testes; Sigma-Aldrich Co. LLC.) were dissolved, and the resulting solution was used as the enzyme solution.
# In 12.5 mL of a 0.2 M acetate buffer solution (pH 4.0), 10 mg of sodium hyaluronate (from crista galli; Wako Pure Chemical Industries, Ltd.) was dissolved, and the resulting solution was used as the hyaluronic acid solution.
# Using each of the solutions prepared as above, the hyaluronidase inhibitory effect was evaluated in accordance with the following procedures. One-hundred microliters of the sample solution, 50 μL of the enzyme solution, and 200 μL of the hyaluronic acid solution were mixed and reacted at 37° C. for 40 minutes. Then, 100 μL each of a 0.4 M aqueous solution of sodium hydroxide and a 1 M aqueous solution of potassium borate were added to the mixture, and the reaction was stopped. […] The absorbance at 585 nm was subsequently measured. From the measured value of absorbance, the hyaluronidase inhibition ratio was determined in accordance with the equation shown below. […]
# [2] = DPPH radical scavenging effect; type: biochemical
# Procedure: Resveratrol 3-O-α-glucoside was dissolved in water to a concentration of 100, 250, 500, or 1000 μmol/L, and the resulting solution was used as a sample solution.
# In 10 mL of ethanol, 2 mg of 2,2-diphenyl-1-picrylhydrazyl (Wako Pure Chemical Industries, Ltd.) was dissolved, and the resulting solution was used as the DPPH solution.
# Using each of the solutions prepared as above, the DPPH radical scavenging effect was evaluated in accordance with the following procedures. One-hundred microliters of the sample solution, 500 μL, of the DPPH solution, 250 μL of a […] MES (2-morpholinoethanesulfonic acid) buffer, and 150 μL of distilled water were mixed and reacted at 30° C. for 30 minutes. The absorbance at 517 nm was subsequently measured. Further, distilled water (control solution) was used instead of the sample solution, and the absorbance at 517 nm was measured under the same conditions as described above. From the measured value of absorbance, the DPPH radical scavenging ratio was determined in accordance with the equation shown below. DPPH radical scavenging ratio (%)=(A−B)/A×100 [Equation 2]
# [3] = system: matrix metalloproteinase 1 (MMP1) gene; assay: MMP1 gene expression in normal human dermal fibroblasts; type: cell-based; settings: 0.001 wt %, 24 hours, control = 100%
# Procedure: Using normal human dermal fibroblasts, the effect of resveratrol 3-O-α-glucoside on matrix metalloproteinase 1 (MMP1) and 9 (MMP9) genes in the dermis was investigated.
# Normal human dermal fibroblasts were seeded into 12-well culture plates at 9×10^4 cells per well. As the medium, 10 vol % FBS (Fetal Bovine Serum)-containing DMEM medium (basal medium) was used, and the cells were preincubated in 5% CO2 at 37° C. for 24 hours. The medium was removed and then replaced with a basal medium supplemented with 0.001 wt % of resveratrol 3-O-α-glucoside, and the cells were cultured in 5% CO2 at 37° C. After 24 hours, total RNA was extracted from the cells, and the levels of expression of the MMP1 and MMP9 genes were quantified by real time PCR. As a control group, cells were cultured without resveratrol 3-O-α-glucoside, and total RNA collected from these cells was used.
# Taking as 100% the level of expression of each of the MMP1 and MMP9 genes for the control group, a relative ratio of the expression level of each of the MMP1 and MMP9 genes for the resveratrol 3-O-α-glucoside-supplemented group (MMP1 and MMP9 gene expression ratios, %) was determined. In the measurement of the expression level of each of the MMP1 and MMP9 genes, GAPDH (glyceraldehyde 3-phosphate dehydrogenase) was used for internal standard correction.
# [4] = system: skin model (EPI-200X; MatTek); type: in vitro ADME, human
# Procedure: Using a three-dimensional human skin model, permeabilities of resveratrol 3-O-α-glucoside and resveratrol into the skin model when administered via the skin surface were compared.
# Resveratrol 3-O-α-glucoside or resveratrol (Tokyo Chemical Industry Co., Ltd.) was prepared into a 0.2 wt % solution or suspension with the addition of PBS, and the resulting solution was used as a test substance. The skin model (EPI-200X; MatTek) was loaded into a special fixture (EPI-100-FIX; MatTek), and placed in the 6-well plate of the receiver. One-hundred microliters of the test substance were added to the horny layer side, and 5 mL of PBS was added to the receiver side. After being allowed to stand at 37° C. for 20 hours, the skin model was collected, and the surface of the skin model was washed well with PBS. The skin model after being washed was homogenized in PBS. After the homogenate was centrifuged, resveratrols in the supernatant were quantified using HPLC under the same conditions as described in Production Example 1 above, and the amount of resveratrols was converted into the equivalent of agly cones.
# [5] = Non-Patent Literature 3; cited from earlier work
# tyrosinase = settings: Non-Patent Literatures 1 and 2; cited from earlier work
structure (smiles),measurement,setting,value
"OC[C@H]1O[C@H](Oc2cc(O)cc(C=Cc3ccc(O)cc3)c2)[C@H](O)[C@@H](O)[C@@H]1O [Resveratrol 3-O-α-Glucoside, resveratrol 3-O-α-glucoside]",Hyaluronidase Inhibition Ratio (%),[1]; 0.025 wt % in the sample solution,7.6%
same,Hyaluronidase Inhibition Ratio (%),[1]; 0.1 wt % in the sample solution,20.6%
same,DPPH Radical Scavenging Ratio (%),[2]; 100 μmol/L in the sample solution,13%
same,DPPH Radical Scavenging Ratio (%),[2]; 250 μmol/L in the sample solution,30%
same,DPPH Radical Scavenging Ratio (%),[2]; 500 μmol/L in the sample solution,50%
same,DPPH Radical Scavenging Ratio (%),[2]; 1000 μmol/L in the sample solution,75%
same,MMP1 Gene Expression Ratio (%),[3],85%
same,amount of permeation into the skin model relative to resveratrol,[4],3.5 times
"OC[C@H]1O[C@@H](Oc2cc(O)cc(/C=C/c3ccc(O)cc3)c2)[C@H](O)[C@@H](O)[C@@H]1O [Resveratrol 3-O-β-Glucoside, resveratrol 3-O-β-glucoside]",water solubility,[5],approximately 400 μg/mL
same,water solubility relative to that of resveratrol,[5],approximately 10 fold
same,tyrosinase inhibitory effect compared to resveratrol,tyrosinase,inferior
